Experiments:
SC2 = biological target: T1, SC2 (Homo sapiens, UniProt Q9ULG1); assay: coupled NADH fluorescence ATPase assay (PK/LDH); type: biochemical; conditions: 1 mM ATP, 100 nM nucleosome, 37°C
T1 construct: gene INO80; insect cells; with RuvB-like 1; RuvB-like 2

hIno80ΔIes2 complex = biological target: T2, hIno80ΔIes2 complex (Homo sapiens, UniProt Q9ULG1); conditions: basal, no nucleosome; ATP:MgCl2:TRIS base 1:1:2; 37°C
T2 construct: gene INO80

[1] = biological target: T3, hIno80 core complex (wild type) (Homo sapiens, UniProt Q9ULG1); design: gene INO80; conditions: basal, no nucleosome; ATP:MgCl2:TRIS base 1:1:2; 37°C
Excerpt: coupled NADH fluorescence ATPase assay (PK/LDH) on hIno80 core complex (wild type)

[2] = biological target: T3, hIno80 core complex (wild type); assay: coupled NADH fluorescence ATPase assay (PK/LDH); type: biochemical; design: gene INO80; nine-subunit core, Ino80 267-1556 with N-terminal 8-His and C-terminal twin Strep-tag II; codon-optimised genes, BTI-TN-5B1-4 insect cells (MultiBac); calculated 743583 Da, SEC-MALS 802 kDa; actin gene not specified; Actin-like protein 6A; Actin-related protein 5; Actin-related protein 8; INO80 complex subunit B; INO80 complex subunit C; RuvB-like 1; RuvB-like 2; conditions: 100 nM H2A nucleosome, ATP varied, 5 mM Mg2+, 37°C; non-competitive with ATP, competitive with nucleosomes; allosteric

T1 sequence (Q9ULG1 487-1556): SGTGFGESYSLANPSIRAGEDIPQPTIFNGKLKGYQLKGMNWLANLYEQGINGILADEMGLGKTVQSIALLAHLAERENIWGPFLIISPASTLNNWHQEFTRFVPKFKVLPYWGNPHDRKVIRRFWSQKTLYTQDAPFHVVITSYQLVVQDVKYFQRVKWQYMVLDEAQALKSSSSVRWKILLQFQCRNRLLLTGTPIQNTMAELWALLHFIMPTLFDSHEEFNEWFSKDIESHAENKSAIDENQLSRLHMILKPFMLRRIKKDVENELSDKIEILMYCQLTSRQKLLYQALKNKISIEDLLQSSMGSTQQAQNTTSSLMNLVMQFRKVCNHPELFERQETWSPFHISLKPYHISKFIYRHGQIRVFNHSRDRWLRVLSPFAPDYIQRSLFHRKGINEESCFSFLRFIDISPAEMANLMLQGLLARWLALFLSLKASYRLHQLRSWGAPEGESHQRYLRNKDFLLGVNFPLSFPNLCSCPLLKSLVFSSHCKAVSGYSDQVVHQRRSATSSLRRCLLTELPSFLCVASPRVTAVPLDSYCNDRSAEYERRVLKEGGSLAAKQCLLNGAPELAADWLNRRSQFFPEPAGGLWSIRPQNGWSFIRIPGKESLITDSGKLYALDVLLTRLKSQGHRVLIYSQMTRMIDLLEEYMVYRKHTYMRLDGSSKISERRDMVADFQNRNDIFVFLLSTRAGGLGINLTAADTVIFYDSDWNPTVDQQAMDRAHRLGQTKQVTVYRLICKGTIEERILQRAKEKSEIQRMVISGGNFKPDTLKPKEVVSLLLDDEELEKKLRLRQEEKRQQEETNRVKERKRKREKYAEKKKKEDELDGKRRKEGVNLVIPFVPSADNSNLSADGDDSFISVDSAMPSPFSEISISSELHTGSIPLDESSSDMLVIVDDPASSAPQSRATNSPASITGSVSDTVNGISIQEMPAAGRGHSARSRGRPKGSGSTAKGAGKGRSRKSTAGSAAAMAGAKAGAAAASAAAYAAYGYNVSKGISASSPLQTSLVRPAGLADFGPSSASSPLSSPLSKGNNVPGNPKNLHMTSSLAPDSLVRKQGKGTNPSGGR
T1 sequence (Q9Y265 whole entry partner): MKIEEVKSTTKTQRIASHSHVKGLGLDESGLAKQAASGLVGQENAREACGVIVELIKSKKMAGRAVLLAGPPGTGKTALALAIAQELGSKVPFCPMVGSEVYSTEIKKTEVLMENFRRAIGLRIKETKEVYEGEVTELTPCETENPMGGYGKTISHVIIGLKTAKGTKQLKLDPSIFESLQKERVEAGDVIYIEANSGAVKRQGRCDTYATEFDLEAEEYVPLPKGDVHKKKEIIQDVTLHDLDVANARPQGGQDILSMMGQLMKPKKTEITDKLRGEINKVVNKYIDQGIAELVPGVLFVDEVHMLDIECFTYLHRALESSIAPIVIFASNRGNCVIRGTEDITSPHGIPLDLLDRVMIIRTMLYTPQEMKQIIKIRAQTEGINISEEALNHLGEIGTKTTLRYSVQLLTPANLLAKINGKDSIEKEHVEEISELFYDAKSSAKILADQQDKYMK
T1 sequence (Q9Y230 2-463 partner): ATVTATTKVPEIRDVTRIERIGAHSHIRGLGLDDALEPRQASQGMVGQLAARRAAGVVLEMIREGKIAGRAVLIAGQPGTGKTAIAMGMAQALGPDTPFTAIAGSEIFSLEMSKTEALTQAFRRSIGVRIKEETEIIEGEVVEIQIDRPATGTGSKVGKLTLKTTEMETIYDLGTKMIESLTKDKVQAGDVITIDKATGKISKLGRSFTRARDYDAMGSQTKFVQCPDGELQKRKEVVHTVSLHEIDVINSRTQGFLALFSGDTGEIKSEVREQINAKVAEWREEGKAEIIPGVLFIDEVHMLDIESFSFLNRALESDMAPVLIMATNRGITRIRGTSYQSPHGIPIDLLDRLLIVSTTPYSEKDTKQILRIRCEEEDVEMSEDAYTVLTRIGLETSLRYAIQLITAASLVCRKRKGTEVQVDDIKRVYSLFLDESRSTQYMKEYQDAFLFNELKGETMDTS

Km (hIno80ΔIes2 complex) [µM] | Km [1] [µM] | Ki [2] [µM] | SMILES | coupled NADH fluorescence ATPase assay (PK/LDH) (SC2)
326 ± 44 | 171 ± 55 | – | Nc1ncnc2c1ncn2[C@@H]1O[C@H](COP(=O)(O)OP(=O)(O)OP(=O)(O)O)[C@@H](O)[C@H]1O [ATP] | Single point inhibition of Ino80 and SC2.
– | – | 37 ± 4 | O=P(O)(O)O[C@H]1[C@H](OP(=O)(O)O)[C@@H](OP(=O)(O)O)[C@H](OP(=O)(O)O)[C@@H](OP(=O)(O)O)[C@H]1OP(=O)(O)O [IP6] | –
